In US20250114289A1, “HAIR DYE COMPOSITION” (The Procter & Gamble Company, priority 2023, published 2025):

What was measured:
[1] = Solubility of photochromic dyes in cosmetically acceptable solvents; type: physicochemical
Text: Thus, it is important to select a solvent that is suitable for use on human skin and hair and enables formulation of a stable hair dye composition with sufficient dye to provide good hair coloring results.

[2] = Activating EMR and deactivating EMR wavelengths of diarylethene photochromic dyes; type: physicochemical; details: for peak deactivating EMR: FIG. 6; for peak activating EMR: FIG. 5
Text: The activation and deactivation properties are illustrated in FIGS. 5 and 6, respectively.

Structure (SMILES)	Max concentration ([1]; solvent Caprylic triglyceride) [% w/w]	Max concentration ([1]; solvent Isopropyl isostearate) [% w/w]	Max concentration ([1]; solvent Isopropyl myristate) [% w/w]	Max concentration ([1]; solvent Oleyl alcohol) [% w/w]	Max concentration ([1]; solvent Polysorbate 20) [% w/w]	Max concentration ([1]; solvent Polysorbate 80) [% w/w]	peak deactivating EMR [2]	peak activating EMR [2]
Cc1sc(-c2ccccc2)cc1C1=C(c2cc(-c3ccccc3)sc2C)C(F)(F)C(F)(F)C1(F)F [DAE-0001, 3,3′-(perfluorocyclopent-1-ene-1,2-diyl)bis(2-methyl-5-phenylthiophene)]	0.66	4.95	4.8	1.47	0.9	1.08	560-610 nm	
Cc1sc(-c2ccccc2)nc1C1=C(c2nc(-c3ccccc3)sc2C)C(F)(F)C(F)(F)C1(F)F [DAE-0012, 4,4′-(perfluorocyclopent-1-ene-1,2-diyl)bis(5-methyl-2-phenylthiazole)]	0.91	2.32	2.25	0.79	1.78	2.20	510-540 nm	290-310 nm
Cc1cc(C)c(C2=C(c3sc(C)cc3C)C(F)(F)C(F)(F)C2(F)F)s1 [DAE-0068, 5,5′-(perfluorocyclopent-1-ene-1,2-diyl)bis(2,4-dimethylthiophene)]	3.46	3.41	3.09	1.34	0.95	0.89	410-450 nm	330-360 nm
